Results on 56 molecules are retold here after patent US20230077723A1, “N-SUBSTITUTED-3,4-(FUSED 5-RING)-5-PHENYL-PYRROLIDINE-2-ONE COMPOUNDS AS INHIBITORS OF ISOQC AND/OR QC ENZYME” (Scenic Immunology B.V., priority 2019, published 2023).

Molecules are shown by their SMILES.

The subject of the first experiment is pyroglutamylated CD47 (pE-CD47) in KBM7 cells. Put plainly: Assay 6 - cell-based potency assay (pE-CD47 CC2C6 staining vs total CD47). Set-up: species or system human. The note with it: 72 hours, CC2C6 signal, read-out: Cell Pot. Assay No. 6. The procedure:
Cells were spun for 4 minutes at 1500 rpm and washed once with PBS/0.5% BSA. Cells were spun down again and the supernatant was removed and incubated in 100 uL antibody staining solution (PBS/0.5% BSA/0.1 μg/mL DAPI (4′,6-diamidino-2-phenylindole, ThermoFisher Scientific) and a mixture of 1:500 FITC-conjugated anti-human CD47 clone 2D3, which recognizes total CD47 irrespective of its pyroglutamylation state, and 1:500 Alexa647-conjugated anti-human CD47 clone CC2C6, which specifically detects pyroglutamylated CD47) for 2 hours at 4° C. Next, the cells were spun down and washed twice with 2×150 μL PBS/0.5% BSA to remove unbound antibody. Cells were again spun down and taken up in 300 μL FACS buffer before analysis on a Celesta FACS machine (BD Biosciences).
KBM7 cells (Kotecki et al., 1999) were infected with lentivirus produced by transfecting pSCNC-LentiCRISPR-QPCTL or pSCNC-LentiCRISPR-CD47 into HEK-293T cells according to standard protocols. After 24 hours incubation, cells were selected with puromycin (Invivogen, 1 μg/mL) for 48 hours. Cells were stained for total CD47 and pE-CD47 and QPCTL k.o. cells were sorted out as negative for pE-CD47, and CD47 k.o. cells as negative for total CD47, using a FACSAria III and FACS Diva software (BD Biosciences).
In order to test compounds for their effect on pyroglutamylation in live cells, 25000 KBM7 cells per well were seeded in a 96-well U-bottom plate in 150 μl IMDM/10% FCS/1% Pen/Strep medium and a 10-point 2-fold dilution range of test compounds. After 72 hours incubation at 37° C., 5% CO2, cells were stained for total CD47 and pE-CD47 and analyzed on a BD Celesta using FACS Diva software (BD Biosciences). Cells gated for DAPI negativity were recorded and the median fluorescence intensity (MFI) of each sample was transformed to linearly scale between the MFI's of wildtype and CD47 knockout cells (in case of the 2D3 antibody) and the wildtype and QPCTL knockout cells (in case of the CC2C6 antibody). IC50's were calculated by 3 parameter logistic regression of the CC2C6 signal vs. compound concentration, where the top of the sigmoidal curve was fixed at 1, using R and the drc package (http://www.r-project.org, https://cran.r-project.org/web/packages/drc/index.html).
Regarding `Cc1c2c(nn1C)C(=O)N(c1ccc3[nH]cnc3c1)C2c1ccc(N2CCC(F)(F)C2)c(F)c1F` (stereo not drawn) [FRPPO-066], the IC50 lay within 1 to 5 µM.
With `Cc1[nH]nc2c1C(c1ccc(N3CCC(F)(F)C3)cc1F)N(c1ccc3[nH]cnc3c1)C2=O` (stereo not drawn) [FRPPO-126C], the IC50 was under 1 µM.

Staying with this experiment, now noted: Homo sapiens, KBM-7, 72 h, CC2C6 signal, Table 2, read-out: Cell Potency Assay 6 (Comparison Data).
Consider `CCCOc1ccc(C2c3c(nn(C)c3C)C(=O)N2c2ccc3[nH]cnc3c2)cc1` (racemic) [FRPPO-001], for which the IC50 is under 1 µM.
For the molecule `CCCOc1ccc(C2c3c(nn(C)c3C)C(=O)N2c2ccc3nnn(C)c3c2)cc1` (racemic) [REF-001, reference compound], the IC50 is over 6.25 µM.
On to `CCCOc1ccc(C2c3c(nn(C)c3C)C(=O)N2c2cc(C)c3nnn(C)c3c2)cc1` (racemic) [REF-002, reference compound], for which the IC50 was over 6.25 µM.
Regarding `CCCOc1ccc(C2c3c(nn(C)c3C)C(=O)N2c2ccc3nnc(C)n3c2)cc1` (racemic) [REF-003, reference compound], the IC50 was at least 50 µM.
`CCCOc1ccc(C2c3c(nn(C)c3C)C(=O)N2c2cc(C)c3nnc(C)n3c2)cc1` (racemic) [REF-004, reference compound]: the IC50 is at least 50 µM.
Regarding `CCCOc1ccc(C2c3c(nn(C)c3C)C(=O)N2c2ccc3nncn3n2)cc1` (racemic) [REF-005, reference compound], the IC50 was at least 50 µM.
Consider `CCCOc1ccc(C2c3c(nn(C)c3C)C(=O)N2c2cc(C)c3nnc(C)n3n2)cc1` (racemic) [REF-006, reference compound], for which the IC50 was over 6.25 µM.
In the case of `CCCOc1ccc(C2c3c(nn(C)c3C)C(=O)N2c2ccc3nnn(C)c3n2)cc1` (racemic) [REF-007, reference compound], the IC50 was over 6.25 µM.
As to `CCCOc1ccc(C2c3c(nn(C)c3C)C(=O)N2c2cc(NC)c3nnc(C)n3n2)cc1` (racemic) [REF-008, reference compound], the IC50 is at least 50 µM.

The experiment is the same for the next values; noted with them: Homo sapiens, KBM-7, 72 h, CC2C6 signal, read-out: Cell Pot. Assay No. 6.
Turning to `CCCOc1ccc(C2c3c(nn(C)c3C)C(=O)N2c2ccc3[nH]cnc3c2)cc1` (racemic) [FRPPO-001], the IC50 was under 1 µM.
Turning to `CCCOc1ccc(C2c3c(C)nn(C)c3C(=O)N2c2ccc3[nH]cnc3c2)cc1` (stereo not drawn) [FRPPO-002], the IC50 fell in the range of 1 to 5 µM.
On to `Cc1c2c(nn1C)C(c1ccc(N3CCC(F)(F)C3)cc1F)N(c1ccc3[nH]cnc3c1)C2=O` (stereo not drawn) [FRPPO-046], for which the IC50 lay in the range of 5 to 50 µM.
For `Cc1c2c(nn1C)C(c1ccc(Br)cc1F)N(c1ccc3[nH]cnc3c1)C2=O` (stereo not drawn) [FRPPO-047], the IC50 fell in the range of 5 to 50 µM.
The same measure, in the same setting: then `Cc1nn(C)c2c1C(=O)N(c1ccc3[nH]cnc3c1)C2c1ccc(N2CCC(F)(F)C2)cc1F` (stereo not drawn) [FRPPO-049], with under 1 µM.
Turning to `Cn1nc(C(F)(F)F)c2c1C(c1ccc(N3CCC(F)(F)C3)cc1F)N(c1ccc3[nH]cnc3c1)C2=O` (stereo not drawn) [FRPPO-050], the IC50 is 1 to 5 µM.
Same read-out and setting: then `Cn1ncc2c1C(c1ccc(Cl)cc1F)N(c1ccc3[nH]cnc3c1)C2=O` (stereo not drawn) [FRPPO-051], with 1 to 5 µM; and `Cc1nn(C)c2c1C(=O)N(c1ccc3[nH]cnc3c1)C2c1ccc(Cl)cc1F` (stereo not drawn) [FRPPO-052], with 5 to 50 µM.
With `Cn1nc(C(F)(F)F)c2c1C(c1ccc(Cl)cc1F)N(c1ccc3[nH]cnc3c1)C2=O` (stereo not drawn) [FRPPO-053], the IC50 lay in the range of 5 to 50 µM.
On the same count and under the same terms, then `O=C1c2scnc2C(c2ccc(N3CCC(F)(F)C3)cc2F)N1c1ccc2[nH]cnc2c1` (stereo not drawn) [FRPPO-054], with 1 to 5 µM; and `O=C1c2scnc2C(c2ccc(Cl)cc2F)N1c1ccc2[nH]cnc2c1` (stereo not drawn) [FRPPO-057], with 5 to 50 µM.
In the case of `Cc1nc2c(s1)C(=O)N(c1ccc3[nH]cnc3c1)C2c1ccc(Cl)cc1F` (stereo not drawn) [FRPPO-058], the IC50 was in the range of 5 to 50 µM.
In the case of `Cc1nc2c(s1)C(c1ccc(N3CCC(F)(F)C3)cc1F)N(c1ccc3[nH]cnc3c1)C2=O` (stereo not drawn) [FRPPO-061], the IC50 lay within 1 to 5 µM.
As to `O=C1c2ncsc2C(c2ccc(Cl)cc2F)N1c1ccc2[nH]cnc2c1` (stereo not drawn) [FRPPO-063], the IC50 lay in the range of 1 to 5 µM.
With `Cc1nc2c(s1)C(c1ccc(Cl)cc1F)N(c1ccc3[nH]cnc3c1)C2=O` (stereo not drawn) [FRPPO-064], the IC50 was 5 to 50 µM.
Take `Cc1c2c(nn1C)C(=O)N(c1ccc3[nH]cnc3c1)C2c1ccc(C#N)cc1F` (stereo not drawn) [FRPPO-069]: the IC50 lay in the range of 1 to 5 µM.
On to `Cc1c2c(nn1C)C(=O)N(c1ccc3[nH]cnc3c1)C2c1ccc(N2CCC2)cc1F` (stereo not drawn) [FRPPO-070], for which the IC50 fell in the range of 1 to 5 µM.
Regarding `Cc1c2c(nn1C)C(=O)N(c1ccc3[nH]cnc3c1)C2c1ccc(N2CC(F)C2)cc1F` (stereo not drawn) [FRPPO-072], the IC50 was under 1 µM.
In the case of `Cc1c2c(nn1C)C(=O)N(c1ccc3[nH]cnc3c1)C2c1ccc(N2CCC(F)C2)cc1F` (stereo not drawn) [FRPPO-073], the IC50 fell in the range of 1 to 5 µM.
Take `Cc1c2c(nn1C)C(=O)N(c1ccc3[nH]cnc3c1)C2c1ccc(N2CC3CC(C2)O3)cc1F` (stereo not drawn) [FRPPO-077]: the IC50 was in the range of 1 to 5 µM.
`Cc1c2c(nn1C)C(=O)N(c1ccc3[nH]cnc3c1)C2c1ccc(N2CCOCC2)cc1F` (stereo not drawn) [FRPPO-078]: the IC50 is under 1 µM.
`Cc1c2c(nn1C)C(=O)N(c1ccc3[nH]cnc3c1)C2c1ccc(N2CCC23COC3)cc1F` (stereo not drawn) [FRPPO-079]: the IC50 was 1 to 5 µM.
On to `Cc1c2c(nn1C)C(=O)N(c1ccc3[nH]cnc3c1)C2c1ccc(N2CC3CC2CO3)cc1F` (stereo not drawn) [FRPPO-081], for which the IC50 lay in the range of 1 to 5 µM.
On to `Cc1c2c(nn1C)C(=O)N(c1ccc3[nH]cnc3c1)C2c1ccc(N2CCNC(C)C2)cc1F` (stereo not drawn) [FRPPO-082], for which the IC50 is 5 to 50 µM.
`Cc1c2c(nn1C)C(=O)N(c1ccc3[nH]cnc3c1)C2c1ccc(N2CCN(C)CC2)cc1F` (stereo not drawn) [FRPPO-083]: the IC50 lay within 1 to 5 µM.
For the molecule `Cc1c2c(nn1C)C(=O)N(c1ccc3[nH]cnc3c1)C2c1ccc(N2CCC(O)CC2)cc1F` (stereo not drawn) [FRPPO-085], the IC50 was 5 to 50 µM.
With `Cc1c2c(nn1C)C(=O)N(c1ccc3[nH]cnc3c1)C2c1ccc(N2CCCC(O)C2)cc1F` (stereo not drawn) [FRPPO-086], the IC50 was 1 to 5 µM.
As to `Cc1c2c(nn1C)C(=O)N(c1ccc3[nH]cnc3c1)C2c1ccc(N2CC(O)C(F)C2)cc1F` (stereo not drawn) [FRPPO-089], the IC50 was in the range of 1 to 5 µM.
As for `Cc1c2c(nn1C)C(=O)N(c1ccc3[nH]cnc3c1)C2c1ccc(NCCC(F)(F)F)cc1F` (stereo not drawn) [FRPPO-092], the IC50 is under 1 µM.
`Cc1c2c(nn1C)C(=O)N(c1ccc3[nH]cnc3c1)C2c1ccc(N2C3CCC2COC3)cc1F` (stereo not drawn) [FRPPO-093]: the IC50 is 1 to 5 µM.
For the molecule `Cc1c2c(nn1C)C(=O)N(c1ccc3[nH]cnc3c1)C2c1ccc(N2CC3(CCOC3)C2)cc1F` (stereo not drawn) [FRPPO-095], the IC50 fell in the range of 1 to 5 µM.
`Cc1c2c(nn1C)C(=O)N(c1ccc3[nH]cnc3c1)C2c1ccc(N2CC3CCC(C2)O3)cc1F` (stereo not drawn) [FRPPO-096]: the IC50 is under 1 µM.
As for `Cc1c2c(nn1C)C(=O)N(c1ccc3[nH]cnc3c1)C2c1ccc(N2CCC3(COC3)C2)cc1F` (stereo not drawn) [FRPPO-097], the IC50 is under 1 µM.
As for `Cc1c2c(nn1C)C(=O)N(c1ccc3[nH]cnc3c1)C2c1ccc(N2CC(C)NC(C)C2)cc1F` (stereo not drawn) [FRPPO-100], the IC50 is 5 to 50 µM.
Take `Cc1c2c(nn1C)C(=O)N(c1ccc3[nH]cnc3c1)C2c1ccc(N2CCC3(CCOC3)C2)cc1F` (stereo not drawn) [FRPPO-104]: the IC50 is under 1 µM.
`Cc1c2c(nn1C)C(=O)N(c1ccc3[nH]cnc3c1)C2c1ccc(N2CCS(=O)(=O)CC2)cc1F` (stereo not drawn) [FRPPO-105]: the IC50 fell in the range of 5 to 50 µM.
Still for that read-out and setting: under `COC(=O)N1CCN(c2ccc(C3c4c(nn(C)c4C)C(=O)N3c3ccc4[nH]cnc4c3)c(F)c2)CC1` (stereo not drawn) [FRPPO-107] stands 1 to 5 µM.
The same measure, in the same setting: under `Cc1c2c(nn1C)C(=O)N(c1ccc3[nH]cnc3c1)C2c1ccc(N2CCOC(C(F)(F)F)C2)cc1F` (stereo not drawn) [FRPPO-109] stands under 1 µM; under `Cc1c2c(nn1C)C(=O)N(c1ccc3[nH]cnc3c1)C2c1ccc(N2CCN(S(C)(=O)=O)CC2)cc1F` (stereo not drawn) [FRPPO-111], 1 to 5 µM; under `Cc1c2c(nn1C)C(=O)N(c1ccc3[nH]cnc3c1)C2c1ccc(N2CCOC[C@@H]2C)cc1F` (stereo partly drawn) [FRPPO-113A], under 1 µM.
Still for that read-out and setting: under `Cc1c2c(nn1C)C(=O)N(c1ccc3[nH]cnc3c1)C2c1ccc(N2CCOC[C@H]2C)cc1F` (stereo partly drawn) [FRPPO-113B] stands under 1 µM.
Take `Cc1c2c(nn1C)C(=O)N(c1ccc3[nH]cnc3c1)C2c1ccc(N2CCO[C@@H](C)C2)cc1F` (stereo partly drawn) [FRPPO-114A]: the IC50 was under 1 µM.
`Cc1c2c(nn1C)C(=O)N(c1ccc3[nH]cnc3c1)C2c1ccc(N2CCC[C@H]2C)cc1F` (stereo partly drawn) [FRPPO-115A]: the IC50 is under 1 µM.
Consider `Cc1[nH]nc2c1C(c1ccc(N3CCC(F)(F)C3)cc1F)N(c1ccc3[nH]cnc3c1)C2=O` (stereo not drawn) [FRPPO-126B], for which the IC50 fell in the range of 1 to 5 µM.
Still for that read-out and setting: under `Cc1c2c(nn1C1CC1)C(=O)N(c1ccc3[nH]cnc3c1)C2c1ccc(N2CCC(F)(F)C2)cc1F` (stereo not drawn) [FRPPO-127B] stands under 1 µM; under `Cc1c2c(nn1C1CC1)C(=O)N(c1ccc3[nH]cnc3c1)C2c1ccc(N2CCC(C(F)(F)F)CC2)cc1F` (stereo not drawn) [FRPPO-136], under 1 µM.
